The subject of this assay is MV-4-11 cells. Briefly: Gene expression microarray analysis (Affymetrix PrimeView) and GSEA. Format: cell-based, human. Also on record: RFU PODN (11730768_x_at) / Fold change /veh PODN (11730768_x_at) / RFU LINC00158 (11744669_a_at) / Fold change /veh LINC00158 (11744669_a_at) / RFU DUSP10 (11751237_a_at) / Fold change /veh DUSP10 (11751237_a_at) / RFU ID3 (11757404_x_at) / Fold change /veh ID3 (11757404_x_at) / RFU PLEKHG5 (11737974_s_at) / Fold change /veh PLEKHG5 (11737974_s_at) / RFU LRRC4B (11730491_at) / Fold change /veh LRRC4B (11730491_at) / RFU GIMAP4 (11747438_a_at) / Fold change /veh GIMAP4 (11747438_a_at) / RFU KRT8 (11758183_x_at) / Fold change /veh KRT8 (11758183_x_at) / RFU CNN1 (11734310_a_at) / Fold change /veh CNN1 (11734310_a_at) / RFU VPS37D (11726825_at) / Fold change /veh VPS37D (11726825_at) / RFU C10orf10 (11716522_x_at) / Fold change /veh C10orf10 (11716522_x_at) / RFU KIR2DL2 /// KIR2DL4 /// KIR2DL5A /// KIR2DL5B /// KIR2DS1 /// KIR2DS2 /// KIR2DS3 /// KIR2DS4 /// KIR3DL3 /// KIR3DL3 /// KIR3DS1 (11738374_at) / Fold change /veh KIR2DL2 /// KIR2DL4 /// KIR2DL5A /// KIR2DL5B /// KIR2DS1 /// KIR2DS2 /// KIR2DS3 /// KIR2DS4 /// KIR3DL3 /// KIR3DL3 /// KIR3DS1 (11738374_at) / RFU C1QL1 (11718748_at) / Fold change /veh C1QL1 (11718748_at) / RFU TMPRSS4 (11747572_a_at) / Fold change /veh TMPRSS4 (11747572_a_at) / RFU HAMP (11756126_x_at) / Fold change /veh HAMP (11756126_x_at) / RFU RNFT2 (11725882_a_at) / Fold change /veh RNFT2 (11725882_a_at) / RFU NR4A2 (11747474_a_at) / Fold change /veh NR4A2 (11747474_a_at) / RFU ABCC12 (11746883_a_at) / Fold change /veh ABCC12 (11746883_a_at) / RFU TMEM136 (11760407_x_at) / Fold change /veh TMEM136 (11760407_x_at) / RFU CLDN22 /// WWC2 (11732394_at) / Fold change /veh CLDN22 /// WWC2 (11732394_at) / RFU HLA-DPB1 (11760878_x_at) / Fold change /veh HLA-DPB1 (11760878_x_at) / RFU SPINT1 (11716480_a_at) / Fold change /veh SPINT1 (11716480_a_at) / RFU GAP43 (11754022_s_at) / Fold change /veh GAP43 (11754022_s_at) / RFU A4GNT (11735810_at) / Fold change /veh A4GNT (11735810_at) / RFU PRB3 (11715151_x_at) / Fold change /veh PRB3 (11715151_x_at) / RFU TUBB4B (11761932_at) / Fold change /veh TUBB4B (11761932_at) / RFU CAPN14 (11732068_a_at) / Fold change /veh CAPN14 (11732068_a_at) / RFU TMCC2 (11721928_a_at) / Fold change /veh TMCC2 (11721928_a_at) / RFU IRGQ (11745062_a_at) / Fold change /veh IRGQ (11745062_a_at) / RFU FAM174B (11720279_a_at) / Fold change /veh FAM174B (11720279_a_at) / RFU TMPRSS4 (11748680_a_at) / Fold change /veh TMPRSS4 (11748680_a_at) / RFU FAM212B (11763350_a_at) / Fold change /veh FAM212B (11763350_a_at) / RFU PLEKHG5 (11743358_a_at) / Fold change /veh PLEKHG5 (11743358_a_at) / RFU ZSCAN30 (11745921_a_at) / Fold change /veh ZSCAN30 (11745921_a_at) / RFU CMKLR1 (11741424_a_at) / Fold change /veh CMKLR1 (11741424_a_at) / RFU LOC101060620 /// MAPK8IP1 (11723275_at) / Fold change /veh LOC101060620 /// MAPK8IP1 (11723275_at) / RFU SPTSSB (11747773_x_at) / Fold change /veh SPTSSB (11747773_x_at) / RFU PRSS12 (11739890_at) / Fold change /veh PRSS12 (11739890_at) / RFU BIN1 (11741810_x_at) / Fold change /veh BIN1 (11741810_x_at) / RFU WNT11 (11732464_a_at) / Fold change /veh WNT11 (11732464_a_at) / RFU C10orf10 (11716521_a_at) / Fold change /veh C10orf10 (11716521_a_at) / RFU C5orf56 (11738089_at) / Fold change /veh C5orf56 (11738089_at) / RFU CYB561 (11721691_x_at) / Fold change /veh CYB561 (11721691_x_at) / RFU ANKRD19P (11752326_a_at) / Fold change /veh ANKRD19P (11752326_a_at) / RFU OR2T12 /// OR2T33 /// OR2T8 (11738714_s_at) / Fold change /veh OR2T12 /// OR2T33 /// OR2T8 (11738714_s_at) / RFU VCAN (11748164_a_at) / Fold change /veh VCAN (11748164_a_at) / RFU JSRP1 (11732532_at) / Fold change /veh JSRP1 (11732532_at) / RFU KRTAP10-11 (11738290_x_at) / Fold change /veh KRTAP10-11 (11738290_x_at) / RFU MYO3A (11730013_a_at) / Fold change /veh MYO3A (11730013_a_at) / RFU EBF3 (11725865_a_at) / Fold change /veh EBF3 (11725865_a_at) / RFU CAMK2N1 (11719241_x_at) / Fold change /veh CAMK2N1 (11719241_x_at) / RFU C5orf56 (11738088_a_at) / Fold change /veh C5orf56 (11738088_a_at) / RFU OLFML3 (11715873_a_at) / Fold change /veh OLFML3 (11715873_a_at) / RFU LOC100653217 /// NTM (11731650_a_at) / Fold change /veh LOC100653217 /// NTM (11731650_a_at) / RFU MAPK11 (11762145_a_at) / Fold change /veh MAPK11 (11762145_a_at) / RFU FIZ1 (11724087_x_at) / Fold change /veh FIZ1 (11724087_x_at) / RFU OASL (11726364_x_at) / Fold change /veh OASL (11726364_x_at) / RFU SOX15 (11748057_x_at) / Fold change /veh SOX15 (11748057_x_at) / RFU CD79A (11719716_a_at) / Fold change /veh CD79A (11719716_a_at) / RFU HIST1H1D (11736915_at) / Fold change /veh HIST1H1D (11736915_at) / RFU CASKIN2 (11723855_a_at) / Fold change /veh CASKIN2 (11723855_a_at) / RFU LOC730098 (11760151_x_at) / Fold change /veh LOC730098 (11760151_x_at) / RFU OR4N2 (11742367_at) / Fold change /veh OR4N2 (11742367_at) / RFU PRRT2 (11749266_a_at) / Fold change /veh PRRT2 (11749266_a_at) / RFU SNX32 (11753110_a_at) / Fold change /veh SNX32 (11753110_a_at) / RFU CDHR5 (11726645_a_at) / Fold change /veh CDHR5 (11726645_a_at) / RFU RCAN1 (11760418_a_at) / Fold change /veh RCAN1 (11760418_a_at) / RFU FAM167A (11723789_a_at) / Fold change /veh FAM167A (11723789_a_at) / RFU FAM26E (11764081_at) / Fold change /veh FAM26E (11764081_at) / RFU ISYNA1 (11749810_s_at) / Fold change /veh ISYNA1 (11749810_s_at) / RFU ACY1 (11761880_at) / Fold change /veh ACY1 (11761880_at) / RFU 11764098_at / Fold change /veh 11764098_at / RFU SAMD14 (11745864_x_at) / Fold change /veh SAMD14 (11745864_x_at) / RFU NPB (11741838_a_at) / Fold change /veh NPB (11741838_a_at) / RFU TMPRSS6 (11731388_a_at) / Fold change /veh TMPRSS6 (11731388_a_at) / RFU KRTAP10-2 (11738614_at) / Fold change /veh KRTAP10-2 (11738614_at) / RFU ARHGAP8 /// PRR5-ARHGAP8 (11727945_x_at) / Fold change /veh ARHGAP8 /// PRR5-ARHGAP8 (11727945_x_at) / RFU KRTAP5-7 /// NADSYN1 (11734609_at) / Fold change /veh KRTAP5-7 /// NADSYN1 (11734609_at) / RFU RASL12 (11751679_a_at) / Fold change /veh RASL12 (11751679_a_at) / RFU CDKN2B (11736163_a_at) / Fold change /veh CDKN2B (11736163_a_at) / RFU PRF1 (11729649_at) / Fold change /veh PRF1 (11729649_at) / RFU, ZNF638 /// ZNF638-IT1 / Fold change vs veh, ZNF638 /// ZNF638-IT1 / RFU, PANK3 / Fold change vs veh, PANK3 / RFU, SH3YL1 / Fold change vs veh, SH3YL1 / RFU, ZEB2 / Fold change vs veh, ZEB2 / RFU, NRIP1 / Fold change vs veh, NRIP1 / RFU, PTTG1IP / Fold change vs veh, PTTG1IP / RFU, CAPN2 / Fold change vs veh, CAPN2 / RFU, MED14 / Fold change vs veh, MED14 / RFU, SNORA58 / Fold change vs veh, SNORA58 / RFU, C1orf63 / Fold change vs veh, C1orf63 / RFU, LRRFIP1 / Fold change vs veh, LRRFIP1 / RFU, NDUFAF7 / Fold change vs veh, NDUFAF7 / RFU, SLC12A2 / Fold change vs veh, SLC12A2 / RFU, IBTK / Fold change vs veh, IBTK / RFU, ESF1 / Fold change vs veh, ESF1 / Fold change vs veh, TMEM50B / RFU, TAOK1 / Fold change vs veh, TAOK1 / RFU, ACBD3 / Fold change vs veh, ACBD3 / RFU, TMA16 / Fold change vs veh, TMA16 / RFU, RWDD3 / Fold change vs veh, RWDD3 / RFU, BCAT1 / Fold change vs veh, BCAT1 / RFU, EDEM3 / Fold change vs veh, EDEM3 / RFU, TMEM33 / Fold change vs veh, TMEM33 / RFU, WDR75 / Fold change vs veh, WDR75 / RFU, AHCTF1 / Fold change vs veh, AHCTF1 / RFU, TFRC / Fold change vs veh, TFRC / RFU, ZDHHC17 / Fold change vs veh, ZDHHC17 / RFU, NOM1 / Fold change vs veh, NOM1 / RFU, ARL8B / Fold change vs veh, ARL8B / RFU, ZBTB11 / Fold change vs veh, ZBTB11 / RFU, TAMM41 / Fold change vs veh, TAMM41 / RFU, KIAA1704 /// LOC100996395 / Fold change vs veh, KIAA1704 /// LOC100996395 / RFU, ING1 / Fold change vs veh, ING1 / RFU, TRMT61B / Fold change vs veh, TRMT61B / RFU, FUBP3 / Fold change vs veh, FUBP3 / RFU, TP53 / Fold change vs veh, TP53 / RFU, TNKS2 / Fold change vs veh, TNKS2 / RFU, ZFP14 / Fold change vs veh, ZFP14 / RFU, ACTR2 / Fold change vs veh, ACTR2 / RFU, PPP3R1 / Fold change vs veh, PPP3R1 / RFU, PIK3R1 / Fold change vs veh, PIK3R1 / RFU, HNRNPA1 / Fold change vs veh, HNRNPA1 / RFU, RNF170 / Fold change vs veh, RNF170 / RFU, ZNF28 / Fold change vs veh, ZNF28 / RFU, RNGTT / Fold change vs veh, RNGTT / RFU, OGT / Fold change vs veh, OGT / RFU, BRD1 / Fold change vs veh, BRD1 / RFU, MARS / Fold change vs veh, MARS / RFU, ZNF655 / Fold change vs veh, ZNF655 / RFU, FAHD1 / Fold change vs veh, FAHD1 / RFU, BDP1 / Fold change vs veh, BDP1 / RFU, LRRCC1 / Fold change vs veh, LRRCC1 / RFU, ARID1A / Fold change vs veh, ARID1A / RFU, ZNF146 / Fold change vs veh, ZNF146 / RFU, ZNF330 / Fold change vs veh, ZNF330 / RFU, GPN3 / Fold change vs veh, GPN3 / RFU, C9orf123 / Fold change vs veh, C9orf123 / RFU, N4BP2L2 / Fold change vs veh, N4BP2L2 / RFU, ARFIP1 / Fold change vs veh, ARFIP1 / RFU, FAM179B / Fold change vs veh, FAM179B / RFU, BCL10 / Fold change vs veh, BCL10 / RFU, UHRF1BP1L / Fold change vs veh, UHRF1BP1L / RFU, BET1 / Fold change vs veh, BET1 / RFU, CNOT2 / Fold change vs veh, CNOT2 / RFU, ZNF268 / Fold change vs veh, ZNF268 / Fold change vs veh, ZNF507 / RFU, DGCR2 / Fold change vs veh, DGCR2 / RFU, WDSUB1 / Fold change vs veh, WDSUB1 / Fold change vs veh, HSP90B1 /// MIR3652 / RFU, ADSS / Fold change vs veh, ADSS / RFU, GK / Fold change vs veh, GK / RFU, ZNF148 / Fold change vs veh, ZNF148 / RFU, TAF9 / Fold change vs veh, TAF9 / RFU, SLC1A5 / Fold change vs veh, SLC1A5 / RFU, SLMO2 / Fold change vs veh, SLMO2 / RFU, ABCC4 / Fold change vs veh, ABCC4 / RFU, LOC101060439 /// RAP1B / Fold change vs veh, LOC101060439 /// RAP1B / RFU, RFX7 / Fold change vs veh, RFX7 / RFU, GTPBP10 / Fold change vs veh, GTPBP10 / RFU, CNEP1R1 / Fold change vs veh, CNEP1R1 / RFU, BIVM-ERCC5 /// ERCC5 / Fold change vs veh, BIVM-ERCC5 /// ERCC5 / RFU, ILF3 / Fold change vs veh, ILF3 / RFU 11762660_at / Fold change /veh 11762660_at / RFU VCAN (11757783_s_at) / Fold change /veh VCAN (11757783_s_at) / RFU DDX43 (11728927_at) / Fold change /veh DDX43 (11728927_at) / RFU KRT8 (11758188_x_at) / Fold change /veh KRT8 (11758188_x_at) / RFU NKD1 (11759106_at) / Fold change /veh NKD1 (11759106_at) / RFU SRD5A1 (11742802_a_at) / Fold change /veh SRD5A1 (11742802_a_at) / RFU TPSAB1 /// TPSB2 (11721975_s_at) / Fold change /veh TPSAB1 /// TPSB2 (11721975_s_at) / RFU GSTM3 (11746129_a_at) / Fold change /veh GSTM3 (11746129_a_at) / RFU IL23R (11737362_x_at) / Fold change /veh IL23R (11737362_x_at) / RFU TMEM51 (11727254_a_at) / Fold change /veh TMEM51 (11727254_a_at) / RFU PIWIL2 (11732686_x_at) / Fold change /veh PIWIL2 (11732686_x_at) / RFU ORM1 (11744905_x_at) / Fold change /veh ORM1 (11744905_x_at) / RFU CCDC152 (11743942_at) / Fold change /veh CCDC152 (11743942_at) / RFU ECM1 (11717891_a_at) / Fold change /veh ECM1 (11717891_a_at) / RFU IL23R (11748794_a_at) / Fold change /veh IL23R (11748794_a_at) / RFU TNFAIP8L3 (11732012_x_at) / Fold change /veh TNFAIP8L3 (11732012_x_at) / RFU MBOAT4 (11741988_at) / Fold change /veh MBOAT4 (11741988_at) / RFU 11764193_at / Fold change /veh 11764193_at / RFU TMEM53 (11763286_at) / Fold change /veh TMEM53 (11763286_at) / RFU MAGEB2 (11727129_at) / Fold change /veh MAGEB2 (11727129_at) / RFU TMEM200A (11744735_a_at) / Fold change /veh TMEM200A (11744735_a_at) / RFU CCDC152 (11751479_a_at) / Fold change /veh CCDC152 (11751479_a_at) / RFU FAM211A (11726209_a_at) / Fold change /veh FAM211A (11726209_a_at) / RFU RGS16 (11746705_a_at) / Fold change /veh RGS16 (11746705_a_at) / RFU VCAN (11755009_s_at) / Fold change /veh VCAN (11755009_s_at) / RFU RHOB (11743442_s_at) / Fold change /veh RHOB (11743442_s_at) / RFU RGS16 (11720943_a_at) / Fold change /veh RGS16 (11720943_a_at) / RFU RGS16 (11720944_at) / Fold change /veh RGS16 (11720944_at) / RFU, VPS4B / Fold change vs veh, VPS4B / RFU, CREB1 / Fold change vs veh, CREB1 / RFU, DNAJC13 / Fold change vs veh, DNAJC13 / RFU, GNAQ / Fold change vs veh, GNAQ / RFU, CDK5R1 / Fold change vs veh, CDK5R1 / RFU, ZRANB3 / Fold change vs veh, ZRANB3 / RFU, CUL4A / Fold change vs veh, CUL4A / RFU, CCNY / Fold change vs veh, CCNY / RFU, UFL1 / Fold change vs veh, UFL1 / RFU, COG3 / Fold change vs veh, COG3 / RFU, DIAPH2 / Fold change vs veh, DIAPH2 / RFU, SKA2 / Fold change vs veh, SKA2 / RFU, AFF3 / Fold change vs veh, AFF3 / RFU, LMF1 / Fold change vs veh, LMF1 / RFU, IPO11 / Fold change vs veh, IPO11 / RFU, DFFB / Fold change vs veh, DFFB / RFU, FOXP1 / Fold change vs veh, FOXP1 / RFU, CARD8 / Fold change vs veh, CARD8 / RFU, STRN3 / Fold change vs veh, STRN3 / RFU, ADK / Fold change vs veh, ADK / RFU, RASSF2 / Fold change vs veh, RASSF2 / RFU, WIPF1 / Fold change vs veh, WIPF1 / RFU, LARP1B / Fold change vs veh, LARP1B / RFU, RASA1 / Fold change vs veh, RASA1 / RFU, RB1 / Fold change vs veh, RB1 / RFU, PPFIA1 / Fold change vs veh, PPFIA1 / RFU, MAT2A / Fold change vs veh, MAT2A / RFU, CCT5 / Fold change vs veh, CCT5 / RFU, WDR92 / Fold change vs veh, WDR92 / RFU, CUX1 / Fold change vs veh, CUX1 / RFU, TTC7A / Fold change vs veh, TTC7A / RFU, TMEM135 / Fold change vs veh, TMEM135 / RFU, DEPTOR / Fold change vs veh, DEPTOR / RFU, CPM / Fold change vs veh, CPM / RFU, DNAJB6 / Fold change vs veh, DNAJB6 / RFU, CACNA2D3 / Fold change vs veh, CACNA2D3 / RFU, DTX4 / Fold change vs veh, DTX4 / RFU, TFCP2 / Fold change vs veh, TFCP2 / RFU, GMCL1 /// GMCL1P1 / Fold change vs veh, GMCL1 /// GMCL1P1 / RFU, AEBP2 / Fold change vs veh, AEBP2 / RFU, SNHG1 /// SNORD22 /// SNORD25 /// SNORD26 /// SNORD27 /// SNORD28 /// SNORD29 /// SNORD31 / Fold change vs veh, SNHG1 /// SNORD22 /// SNORD25 /// SNORD26 /// SNORD27 /// SNORD28 /// SNORD29 /// SNORD31 / Fold change (Aza/veh), C12orf56 (ProbeSet 11735607_a_at) / Fold change (ACY-1035/veh), C12orf56 (ProbeSet 11735607_a_at) / Fold change (Aza/veh), FGFR1OP (ProbeSet 11751329_s_at) / Fold change (ACY-1035/veh), FGFR1OP (ProbeSet 11751329_s_at) / Fold change (Aza/veh), VPS36 (ProbeSet 11739960_a_at) / Fold change (ACY-1035/veh), VPS36 (ProbeSet 11739960_a_at) / RFU SYPL1 (11715823_x_at) / Fold change /veh SYPL1 (11715823_x_at) / RFU IGFBP7 (11715501_s_at) / Fold change /veh IGFBP7 (11715501_s_at) / RFU REEP3 (11722064_at) / Fold change /veh REEP3 (11722064_at) / RFU IGLL1 (11728026_x_at) / Fold change /veh IGLL1 (11728026_x_at): dose or concentration left out as unconfirmed. To be noted: ProbeSet 11743286_at; LIST D.

SMILES strings stand for the structures.

On to `Nc1ncn([C@@H]2O[C@H](CO)[C@@H](O)[C@H]2O)c(=O)n1` [azacitidine], for which the “Fold change vs veh, DTX4” value was 0.59.

The values are drawn from PMC5218480 (PLoS ONE, 2017).
